Reference: patent US8541588B2, “Sulfonamide derivatives” (Pfizer Limited, priority 2009, dated 2013)

Biological target: T1, Nav1.7 (or SCN9A) channel; HEK cells stably transfected with hSCN9A (Homo sapiens, UniProt Q15858)
T1 construct: expressed in transfected cells
Experiment: Nav1.7 block, PatchXpress 7000 automated whole-cell voltage clamp, estimated IC50 (EIC50)
Type: cell-based
Settings: estimated IC50; hSCN9A HEK cells, PatchXpress platform; Examples 283-814

T1 sequence (Q15858 whole entry): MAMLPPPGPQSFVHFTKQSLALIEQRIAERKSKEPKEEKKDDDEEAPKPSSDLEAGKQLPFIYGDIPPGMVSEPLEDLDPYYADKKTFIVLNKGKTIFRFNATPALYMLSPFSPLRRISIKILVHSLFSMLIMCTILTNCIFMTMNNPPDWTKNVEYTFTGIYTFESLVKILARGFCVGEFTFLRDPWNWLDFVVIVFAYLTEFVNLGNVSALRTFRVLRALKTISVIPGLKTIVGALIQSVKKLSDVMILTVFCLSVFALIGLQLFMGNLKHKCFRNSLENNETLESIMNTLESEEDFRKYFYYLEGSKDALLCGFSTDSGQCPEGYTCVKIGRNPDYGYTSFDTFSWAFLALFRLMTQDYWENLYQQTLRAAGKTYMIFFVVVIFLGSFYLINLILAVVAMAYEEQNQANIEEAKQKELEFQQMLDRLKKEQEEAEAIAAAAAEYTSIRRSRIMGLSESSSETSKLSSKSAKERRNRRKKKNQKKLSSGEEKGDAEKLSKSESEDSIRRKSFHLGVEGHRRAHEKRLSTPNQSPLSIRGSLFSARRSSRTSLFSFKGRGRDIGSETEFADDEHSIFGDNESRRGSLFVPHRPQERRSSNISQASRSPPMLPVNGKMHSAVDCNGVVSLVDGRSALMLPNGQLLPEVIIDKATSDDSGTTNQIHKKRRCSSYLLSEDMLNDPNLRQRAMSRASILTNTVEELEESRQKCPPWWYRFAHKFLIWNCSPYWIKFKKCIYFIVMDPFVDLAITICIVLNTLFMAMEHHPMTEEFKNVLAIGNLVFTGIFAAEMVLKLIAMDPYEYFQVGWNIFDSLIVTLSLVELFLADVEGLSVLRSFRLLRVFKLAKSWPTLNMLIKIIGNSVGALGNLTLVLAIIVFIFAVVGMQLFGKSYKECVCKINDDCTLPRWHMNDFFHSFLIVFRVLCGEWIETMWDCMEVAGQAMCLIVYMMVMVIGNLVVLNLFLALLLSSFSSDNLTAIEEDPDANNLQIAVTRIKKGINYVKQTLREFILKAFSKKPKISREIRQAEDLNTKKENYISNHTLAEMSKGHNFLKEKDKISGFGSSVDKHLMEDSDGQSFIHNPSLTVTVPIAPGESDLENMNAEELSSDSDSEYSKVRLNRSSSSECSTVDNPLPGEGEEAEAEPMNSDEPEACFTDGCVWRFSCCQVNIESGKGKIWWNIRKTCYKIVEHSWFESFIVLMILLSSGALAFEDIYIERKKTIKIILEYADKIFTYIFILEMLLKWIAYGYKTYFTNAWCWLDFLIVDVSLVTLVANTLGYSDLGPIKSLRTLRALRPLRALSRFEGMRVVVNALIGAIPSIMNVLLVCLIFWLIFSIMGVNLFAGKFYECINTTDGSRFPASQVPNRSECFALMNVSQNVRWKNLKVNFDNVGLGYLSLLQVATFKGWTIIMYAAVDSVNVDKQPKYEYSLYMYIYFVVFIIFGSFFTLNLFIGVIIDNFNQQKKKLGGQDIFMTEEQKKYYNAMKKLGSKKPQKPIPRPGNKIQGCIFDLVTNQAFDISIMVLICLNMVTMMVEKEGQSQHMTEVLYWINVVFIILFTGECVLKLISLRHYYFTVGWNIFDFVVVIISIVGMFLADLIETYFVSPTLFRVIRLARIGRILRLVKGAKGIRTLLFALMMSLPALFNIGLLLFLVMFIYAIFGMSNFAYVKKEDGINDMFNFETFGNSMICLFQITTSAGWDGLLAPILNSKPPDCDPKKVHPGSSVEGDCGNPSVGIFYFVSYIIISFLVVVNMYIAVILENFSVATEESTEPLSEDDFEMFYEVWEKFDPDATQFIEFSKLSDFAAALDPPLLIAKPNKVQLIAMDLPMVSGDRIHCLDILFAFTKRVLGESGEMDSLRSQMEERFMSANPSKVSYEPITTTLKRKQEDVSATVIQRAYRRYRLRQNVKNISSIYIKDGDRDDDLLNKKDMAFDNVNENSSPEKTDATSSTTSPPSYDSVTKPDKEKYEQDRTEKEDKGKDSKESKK

Row | IC50 | SMILES
1 | 970 nM | Cn1nc(C(F)(F)F)cc1-c1cc(F)c(F)c(Oc2ccc(S(=O)(=O)Nc3nccs3)cc2C#N)c1 [Example 472, 3-cyano-4-{2,3-difluoro-5-[1-methyl-3-(trifluoromethyl)-1H-pyrazol-5-yl]phenoxy}-N-1,3-thiazol-2-ylbenzenesulfonamide]
2 | 72 nM | CCn1nc(C(F)(F)F)cc1-c1ccc(Oc2ccc(S(=O)(=O)Nc3ncns3)cc2Cl)cc1 [Example 473, 3-chloro-4-{4-[1-ethyl-3-(trifluoromethyl)-1H-pyrazol-5-yl]phenoxy}-N-1,2,4-thiadiazol-5-ylbenzenesulfonamide]
3 | 44 nM | CC(C)(C)n1nccc1-c1cc(Cl)ccc1Oc1ccc(S(=O)(=O)Nc2ncns2)cc1Cl [Example 474, 4-[2-(1-tert-butyl-1H-pyrazol-5-yl)-4-chlorophenoxy]-3-chloro-N-1,2,4-thiadiazol-5-ylbenzenesulfonamide]
4 | 7.5 nM | O=S(=O)(Nc1ncns1)c1ccc(Oc2ccc(Cl)cc2-c2ccn[nH]2)c(Cl)c1 [Example 475, 3-chloro-4-[4-chloro-2-(1H-pyrazol-5-yl)phenoxy]-N-1,2,4-thiadiazol-5-ylbenzenesulfonamide]
5 | 170 nM | CC(C)(C)n1nccc1-c1cc(F)ccc1Oc1ccc(S(=O)(=O)Nc2ncns2)cc1Cl [Example 476, 4-[2-(1-tert-butyl-1H-pyrazol-5-yl)-4-fluorophenoxy]-3-chloro-N-1,2,4-thiadiazol-5-ylbenzenesulfonamide]
6 | 16 nM | O=S(=O)(Nc1ncns1)c1ccc(Oc2ccc(Cl)cc2C2CCNCC2)c(Cl)c1 [Example 477, 3-chloro-4-(4-chloro-2-piperidin-4-ylphenoxy)-N-1,2,4-thiadiazol-5-ylbenzenesulfonamide]
7 | 44 nM | O=S(=O)(Nc1ncns1)c1ccc(Oc2ccc(F)cc2-c2ccn[nH]2)c(Cl)c1 [Example 478, 3-chloro-4-[4-fluoro-2-(1H-pyrazol-5-yl)phenoxy]-N-1,2,4-thiadiazol-5-ylbenzenesulfonamide]
8 | 230 nM | CCn1nc(C(F)(F)F)cc1-c1cccc(Oc2ccc(S(=O)(=O)Nc3ncc(F)s3)cc2C#N)c1 [Example 479, 3-cyano-4-{3-[1-ethyl-3-(trifluoromethyl)-1H-pyrazol-5-yl]phenoxy}-N-(5-fluoro-1,3-thiazol-2-yl)benzenesulfonamide]
9 | >1000 nM | N#Cc1cc(S(=O)(=O)Nc2nccs2)ccc1Oc1ccc(-c2cc(C(F)(F)F)n(CCCF)n2)cc1F [Example 480, 3-cyano-4-{2-fluoro-4-[1-(3-fluoropropyl)-5-(trifluoromethyl)-1H-pyrazol-3-yl]phenoxy}-N-1,3-thiazol-2-ylbenzenesulfonamide]
10 | 1700 nM | Cc1cc(-c2cccc(Oc3ccc(S(=O)(=O)Nc4nccs4)cc3C#N)c2)n(CCN(C)C)n1 [Example 481, 3-cyano-4-(3-{1-[2-(dimethylamino)ethyl]-3-methyl-1H-pyrazol-5-yl}phenoxy)-N-1,3-thiazol-2-ylbenzenesulfonamide]
11 | >1000 nM | N#Cc1cc(S(=O)(=O)Nc2nccs2)ccc1Oc1ccc(-c2cn(CC(F)(F)F)nc2N)cc1 [Example 482, 4-{4-[3-amino-1-(2,2,2-trifluoroethyl)-1H-pyrazol-4-yl]phenoxy}-3-cyano-N-1,3-thiazol-2-ylbenzenesulfonamide]
12 | >1000 nM | Cn1cc(-c2ccc(Oc3ccc(S(=O)(=O)Nc4nccs4)cc3C#N)cc2)c(N)n1 [Example 483, 4-[4-(3-amino-1-methyl-1H-pyrazol-4-yl)phenoxy]-3-cyano-N-1,3-thiazol-2-ylbenzenesulfonamide]
13 | >1000 nM | CC1CN(c2ccc(Oc3ccc(S(=O)(=O)Nc4nccs4)cc3C#N)cc2)C(=O)N1 (stereo not drawn) [Example 484, 3-cyano-4-[4-(4-methyl-2-oxoimidazolidin-1-yl)phenoxy]-N-1,3-thiazol-2-ylbenzenesulfonamide]
14 | >1000 nM | CC(C)C1CN(c2ccc(Oc3ccc(S(=O)(=O)Nc4nccs4)cc3C#N)cc2)C(=O)N1 (stereo not drawn) [Example 485, 3-cyano-4-[4-(4-isopropyl-2-oxoimidazolidin-1-yl)phenoxy]-N-1,3-thiazol-2-ylbenzenesulfonamide]
15 | >1000 nM | N#Cc1cc(S(=O)(=O)Nc2nccs2)ccc1Oc1ccc(N2CCNC2=O)cc1 [Example 486, 3-cyano-4-[4-(2-oxoimidazolidin-1-yl)phenoxy]-N-1,3-thiazol-2-ylbenzenesulfonamide]
16 | >1000 nM | CN1CCN(c2ccc(Oc3ccc(S(=O)(=O)Nc4nccs4)cc3C#N)cc2)C1=O [Example 487, 3-cyano-4-[4-(3-methyl-2-oxoimidazolidin-1-yl)phenoxy]-N-1,3-thiazol-2-ylbenzenesulfonamide]
17 | >1000 nM | N#Cc1cc(S(=O)(=O)Nc2nccs2)ccc1Oc1ccc(N2CCCC2=O)cc1 [Example 488, 3-cyano-4-[4-(2-oxopyrrolidin-1-yl)phenoxy]-N-1,3-thiazol-2-ylbenzenesulfonamide]
18 | 1200 nM | CCc1cc(-n2cccn2)ccc1Oc1ccc(S(=O)(=O)Nc2nccs2)cc1C#N [Example 489, 3-cyano-4-[2-ethyl-4-(1H-pyrazol-1-yl)phenoxy]-N-1,3-thiazol-2-ylbenzenesulfonamide]

Row | IC50 | SMILES
19 | 660 nM | CCc1cc(-n2ccc(C(F)(F)F)n2)ccc1Oc1ccc(S(=O)(=O)Nc2nccs2)cc1C#N [Example 490, 3-cyano-4-{2-ethyl-4-[3-(trifluoromethyl)-1H-pyrazol-1-yl]phenoxy}-N-1,3-thiazol-2-ylbenzenesulfonamide]
20 | >1000 nM | N#Cc1cc(S(=O)(=O)Nc2nccs2)ccc1Oc1ccc(-n2cccn2)cc1C(F)(F)F [Example 491, 3-cyano-4-[4-(1H-pyrazol-1-yl)-2-(trifluoromethyl)phenoxy]-N-1,3-thiazol-2-ylbenzenesulfonamide]
21 | 1500 nM | N#Cc1cc(S(=O)(=O)Nc2nccs2)ccc1Oc1ccc(-n2ccc(C(F)(F)F)n2)cc1C(F)(F)F [Example 492, 3-cyano-N-1,3-thiazol-2-yl-4-{2-(trifluoromethyl)-4-[3-(trifluoromethyl)-1H-pyrazol-1-yl]phenoxy}benzenesulfonamide]
22 | 580 nM | N#Cc1cc(S(=O)(=O)Nc2nccs2)ccc1Oc1ccc(Cl)cc1CN1CCOCC1 [Example 493, 4-[4-chloro-2-(morpholin-4-ylmethyl)phenoxy]-3-cyano-N-1,3-thiazol-2-ylbenzenesulfonamide]
23 | 2500 nM | Cn1ccc(-c2ccc(F)cc2Oc2ccc(S(=O)(=O)Nc3nccs3)cc2C#N)n1 [Example 494, 3-cyano-4-[5-fluoro-2-(1-methyl-1H-pyrazol-3-yl)phenoxy]-N-1,3-thiazol-2-ylbenzenesulfonamide]
24 | >1000 nM | COC(=O)c1cc(Oc2ccc(S(=O)(=O)Nc3nccs3)cc2C#N)ccc1-n1cc(Cl)cn1 [Example 495, methyl 2-(4-chloro-1H-pyrazol-1-yl)-5-{2-cyano-4-[(1,3-thiazol-2-ylamino)sulfonyl]phenoxy}benzoate]
25 | 3800 nM | COCc1cc(Oc2ccc(S(=O)(=O)Nc3nccs3)cc2C#N)ccc1-n1cc(Cl)cn1 [Example 496, 4-[4-(4-chloro-1H-pyrazol-1-yl)-3-(methoxymethyl)phenoxy]-3-cyano-N-1,3-thiazol-2-ylbenzenesulfonamide]
26 | >1000 nM | N#Cc1cc(S(=O)(=O)Nc2nccs2)ccc1Oc1ccc(-n2cc(Cl)cn2)c(C(=O)O)c1 [Example 497, 2-(4-chloro-1H-pyrazol-1-yl)-5-{2-cyano-4-[(1,3-thiazol-2-ylamino)sulfonyl]phenoxy}benzoic acid]
27 | 190 nM | N#Cc1cc(S(=O)(=O)Nc2ncns2)ccc1Oc1ccc(F)cc1-c1ccn[nH]1 [Example 499, 3-cyano-4-[4-fluoro-2-(1H-pyrazol-5-yl)phenoxy]-N-1,2,4-thiadiazol-5-ylbenzenesulfonamide]
28 | 88 nM | CCn1nc(C(F)(F)F)cc1-c1ccc(Oc2ccc(S(=O)(=O)Nc3ncns3)cc2C#N)cc1 [Example 500, 3-cyano-4-{4-[1-ethyl-3-(trifluoromethyl)-1H-pyrazol-5-yl]phenoxy}-N-1,2,4-thiadiazol-5-ylbenzenesulfonamide]
29 | 40 nM | Cn1nccc1-c1cc(Br)ccc1Oc1ccc(S(=O)(=O)Nc2ncns2)cc1C#N [Example 501, 4-[4-bromo-2-(1-methyl-1H-pyrazol-5-yl)phenoxy]-3-cyano-N-1,2,4-thiadiazol-5-ylbenzenesulfonamide]
30 | 22 nM | N#Cc1cc(S(=O)(=O)Nc2ncns2)ccc1Oc1ccc(OC(F)(F)F)cc1-c1cn[nH]c1 [Example 502, 3-cyano-4-[2-(1H-pyrazol-4-yl)-4-(trifluoromethoxy)phenoxy]-N-1,2,4-thiadiazol-5-ylbenzenesulfonamide]
31 | 4.9 nM | CC(=O)c1cccc(-c2cc(Cl)ccc2Oc2ccc(S(=O)(=O)Nc3ncns3)cc2C#N)c1 [Example 504, 4-[(3′-acetyl-5-chlorobiphenyl-2-yl)oxy]-3-cyano-N-1,2,4-thiadiazol-5-ylbenzenesulfonamide]
32 | 50 nM | N#Cc1cc(S(=O)(=O)Nc2ncns2)ccc1Oc1ccc(Cl)cc1C1CCNCC1 [Example 505, 4-(4-chloro-2-piperidin-4-ylphenoxy)-3-cyano-N-1,2,4-thiadiazol-5-ylbenzenesulfonamide]
33 | 11 nM | N#Cc1cc(S(=O)(=O)Nc2ncns2)ccc1Oc1ccc(I)cc1-c1ccn[nH]1 [Example 506, 3-cyano-4-[4-iodo-2-(1H-pyrazol-5-yl)phenoxy]-N-1,2,4-thiadiazol-5-ylbenzenesulfonamide]
34 | 11 nM | Cn1nccc1-c1ccc(I)cc1Oc1ccc(S(=O)(=O)Nc2ncns2)cc1C#N [Example 507, 3-cyano-4-[5-iodo-2-(1-methyl-1H-pyrazol-5-yl)phenoxy]-N-1,2,4-thiadiazol-5-ylbenzenesulfonamide]
35 | 20 nM | Cc1cc(-c2cc(C(F)(F)F)ccc2Oc2ccc(S(=O)(=O)Nc3ncns3)cc2C#N)ccn1 [Example 508, 3-cyano-4-[2-(2-methylpyridin-4-yl)-4-(trifluoromethyl)phenoxy]-N-1,2,4-thiadiazol-5-ylbenzenesulfonamide]

Row | SMILES | IC50
36 | N#Cc1cc(S(=O)(=O)Nc2ncns2)ccc1Oc1ccc(Br)cc1-c1cn[nH]c1 [Example 503, 4-[Bromo-2-(1H-pyrazol-4-yl)phenoxy]-3-cyano-N-1,2,4-thiadiazol-5-ylbenzenesulfonamide] | 7 nM
